Residues, ends and D or L forms follow the SMILES beside them.
Columns and labels:
[1] = test system: B3 human anti-DNA antibody; experiment: Direct binding ELISA of B3 to laminin peptides; conditions: direct binding ELISA test after two (2) hours
Method: (§1) The C72 murine anti-DNA antibody has been derived from (NZB×NZW)F1 lupus mice by the hybridoma technique as described in Eilat D. et al J. Immunol. […] The monoclonal anti-DNA antibodies DIL6 and B3 were derived from lupus patients by hybridoma technique as described in Ehrenstein M. R. et al J. Clin. Invest. (1994) 93 1787-1799 and Ehrenstein M. R. et al Kidney Inter. (1995) 48 705-711.
(§2) Wells were coated with 10 μg/ml of the peptides, blocked with 1% BSA (bovine serum albumin) in PBS (pH 7,4), reacted with appropriately diluted serum or urine samples or monoclonal antibodies, incubated with anti-human or anti-mouse immunoglobulin enzyme conjugated to alkaline phosphatase and detected by addition of substrate (Sigma 100 Phosphatase Substrate Tablets) and color development using an Organon Teknika Microwell System spectrometer at wavelength of 405 nm.
The human monoclonal anti-DNA antibodies DIL 6 and B3 were derived from lupus patients by the hybridoma technique. […] In FIGS. 3 and 4, the peptides are referred to as denoted above or as follows; AS30 is R27, AS19 is R35 AS35 is R26, AS17 is R28 and AS6 is R18.
(§3) The peptides of the present invention were tested for their ability to bind directly with C72 murine anti-DNA antibodies and B3 human anti-DNA antibodies according to the method described hereinabove.

C72 anti-DNA antibody = experiment: Competitive inhibition of C72 binding to R38 (5100); design: species or system mouse; conditions: concentration of competitive inhibitor, ELISA
From the text: A competitive inhibition study compared how each of the peptides competes with R38 (5100) for binding to the C72 anti-DNA antibody. Conducted according to the methods described hereinabove, the results of the study are disclosed in Table 4 below and are further elucidated by reference to FIG. 10.

[2] = test system: C72 murine anti-DNA antibody; experiment: Direct binding ELISA of C72 to laminin peptides; design: species or system mouse; conditions: direct binding ELISA test after one (1) hour
Method: as §1, §2
The interaction of the C72 murine anti-DNA antibody with laminin peptides was analyzed by ELISA as described above. The C72 conditioned medium was diluted in PBS in various dilutions.
as §3

For `CC[C@H](C)[C@H](NC(=O)[C@H](CC(N)=O)NC(=O)[C@@H](NC(=O)[C@H](CC(=O)O)NC(=O)[C@H](CO)NC(=O)[C@H](CCC(N)=O)NC(=O)[C@@H](NC(=O)[C@H](CCCCN)NC(=O)[C@H](Cc1ccc(O)cc1)NC(=O)CNC(=O)[C@H](CCC(=O)O)NC(=O)[C@@H](N)CCCCN)C(C)C)C(C)C)C(=O)N[C@H](C(=O)N[C@@H](CC(C)C)C(=O)N[C@@H](CCC(=O)O)C(=O)N[C@@H](Cc1ccccc1)C(=O)N[C@@H](CCCNC(=N)N)C(=O)N[C@H](C(=O)N[C@@H](CO)C(=O)N[C@@H](CO)C(=O)N[C@@H](CCC(N)=O)C(=O)O)[C@@H](C)O)[C@@H](C)O` [Peptide 5300] (H-KEGYKVQSDVNITLEFRTSSQ-OH; N-terminus and C-terminus assumed), the “B3 Binding” value [1] was 0.03 O.D, the “50% Inhibition of C72 binding to mouse R38 (5100)” value (C72 anti-DNA antibody) was 85 µg/mL and the “C72 Binding” value [2] was 0.03 O.D.

From US20020054872A1, “Peptides for the treatment of systemic lupus erythematosus and methods of treating systemic lupus erythematosus” (priority 1997, published 2002)
